The record followed here is patent US10087156B2, “Methods and compositions related to retinoid receptor-selective pathway” (Sanford Burnham Prebys Medical Discovery Institute, priority 2010, dated 2018).

Entries after “also recorded” stand apart in the source; their conditions may differ.

For one experiment, the system named is HepG2 liver cancer cells. Kind of experiment: PARP cleavage and caspase-8 activation with TNFα by immunoblotting. The following applies: HepG2 (K-80003: HepG2 and PC3) cells, TNFα 10 ng/ml. Type of experiment: cell-based. Here is the method:
(§1) ZR-75-1 cells were treated with TNFα and/or Sulindac (75 μM) or K-80003 (50 μM) for 6 hr and analyzed by immunoblotting.
HepG2 cells cultured in medium with 1% FBS were treated with SR11237 (1 μM) for 1 hr, then TNFα (10 ng/ml) and/or Sulindac (75 μM) for 4 hr, and analyzed by immunoblotting. HepG2 cells transfected with control or RXRα siRNA were treated with TNFα and/or Sulindac and analyzed by immunoblotting.

In a further experiment the test system is ZR-75-1 cells. Kind of experiment: PARP cleavage with TNFα by immunoblotting. Type of experiment: cell-based, human. The following applies: K-80003 50 μM, Sulindac 75 μM, 6 hr. Here is the method:
as §1

For experiment [1], the system named is HeLa/RXRα/1-134 stable clone. Description: Colony formation (clonogenic survival) assay. Type of experiment: cell-based. The following applies: HeLa/RXRα/1-134 stable clone (also RXRα/Δ80 stable clones). Here is the method:
HeLa RXR/α1-134 stable clone and control HeLa cells were seeded in 6-well plate, 350 cells/well. Five days later, cells were treated with Sulindac (50 μM) and K-80003 (25 μM) in 0.5% serum medium for 3 days. After washed with PBS, cells were fixed with 4% paraformaldehyde in PBS for 20 min. Colonies were stained with 0.1% crystal violet for 30 min, and pictures were taken and colonies were counted.

The target of experiment [2] is T1, RXRα ligand-binding domain (LBD) (Homo sapiens, UniProt P19793).
T1 construct: made in house
T1 sequence (P19793 223-462): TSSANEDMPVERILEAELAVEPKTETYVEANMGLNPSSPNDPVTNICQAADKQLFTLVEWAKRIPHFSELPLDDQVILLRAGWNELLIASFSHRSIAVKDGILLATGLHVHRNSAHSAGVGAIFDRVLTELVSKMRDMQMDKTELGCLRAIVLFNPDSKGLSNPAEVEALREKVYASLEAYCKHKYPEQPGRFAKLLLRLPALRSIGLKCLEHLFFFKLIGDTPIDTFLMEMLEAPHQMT
Kind of experiment: Competitive ligand-binding assay with [3H]9-cis-RA. Here is the method:
Competitive ligand-binding assays (FIG. 1A) and HPLC analysis of Sulindac binding to RXRα, Nur77, or RARβ in HEK293T cells (FIG. 1B) were performed. RXRα LBD protein was incubated with [^3H]9-cis-RA in the presence or absence of Sulindac or unlabeled 9-cis-RA. Bound [^3H]9-cis-RA was quantitated by liquid scintillation counting (FIG. 1A). HEK293T cells stably expressing RXRαfused to a C-terminal TAP tag (Stratagene, La Jolla, Calif.) were treated with or without 100 μM sulindac sulfide for 3 hr. After treatment, cells were purified and analyzed by HPLC for the presence of sulindac sulfide. A standard solution of sulindac sulfide was used to obtain the calibration curve. Characteristic peak spectrum and retention time was used for identification, and peak areas at max used for quantification were calculated (FIGS. 1B and 10). Sulindac sulfide bound to RXRα with an IC50 of 80 μM (FIG. 1A), which is in the concentration range that induces apoptosis.
Bacterially expressed His-tagged RXRα ligand-binding domain (LBD) (aa 223-462) was incubated with [^3H]-9-cis-RA (Amersham Biosciences, Amersham, UK) in ligand binding assay buffer in the presence or absence of various concentrations of unlabeled 9-cis-RA or sulindac sulfide. […] Bound radiolabeled 9-cis-RA was determined in a scintillation counter as described (Kolluri, S. K. et al., Proc Natl Acad Sci USA 102 (7), 2525-2530 (2005)).

The test system of a further experiment is AKT. Description: TNFα-induced AKT activation by immunoblotting. Type of experiment: cell-based. Here is the method:
MEF and MCF-7 cells were starved overnight, pretreated with Sulindac for 1 hr, and stimulated with EGF (100 ng/ml) for 15 min. AKT activation was analyzed by immunoblotting (FIG. 12A). MEF and Caco-2 cells were starved overnight and pretreated with Sulindac for 30 min before exposure to all-trans-retinoic acid (ATRA) (10^−7 M) for 30 min and analyzed for AKT activation (FIG. 12B). AKT activation in ZR-75-1 breast cancer cells transfected with RXRα siRNA for 48 hr before exposure to 9-cis-RA (10^−7 M) for 30 min was also analyzed by immunoblotting (FIG. 12C). A549 lung cancer cells transfected with RXRα or control siRNA (FIG. 3C) and ZR-75-1 and PC3 cells (FIG. 3D) were pretreated with Sulindac (100 μM) for 1 hr before exposure to TNFα (10 ng/ml) for 30 min and analyzed for AKT activation and RXRα expression by immunoblotting.
For immunoblotting, cell lysates were boiled in SDS sample buffer, resolved by SDS-polyacrylamide gel electrophoresis, and transferred to nitrocellulose. After transfer, the membranes were blocked in 5% milk in TBST (10 mM Tris-HCl, pH. 8.0, 150 mM NaCl, 0.05% Tween 20) containing antibody. The membranes were then washed three times with TBST, then incubated for 1 hr at room temperature in 5% milk in TBST containing horseradish peroxide-linked anti-immunoglobulin.

Another experiment deals with HepG2 cells. Description: Bax activation by Bax/6A7 immunostaining. Type of experiment: cell-based. As for the experimental part:
Activation of Bax by Sulindac and TNFα. HepG2 cells treated with TNFα and/or Sulindac were immunostained with Bax/6A7 antibody. […] HepG2 cells treated with TNFα or Sulindac alone or together were examined for Bax activation by immunostaining using conformation-sensitive Bax/6A7 antibody. Significant Bax staining was observed only when cells were treated with both TNFα and Sulindac (FIG. 6E). Cross-talk between extrinsic and intrinsic apoptotic pathways can be linked through Bid cleavage and activation (Li et al., Cell 94 (4), 491-501 (1998)). […] PC3 cells transfected with CA-AKT or DN-AKT were treated with TNFα and/or Sulindac, and analyzed by immunoblotting (FIG. 6F). Activation of caspase-8 (FIG. 6G) and Bax (FIG. 6H) by Sulindac and TNFα. HepG2 cells transfected with CA-AKT were treated with TNFα and Sulindac, and immunostained with anti-cleaved caspase-8 or Bax/6A7 antibody. […] Sulindac/TNFα-induced PARP cleavage was inhibited by transfection of constitutive-active AKT (CA-AKT) but enhanced by transfection of dominant-negative AKT (DN-AKT) (FIG. 6F). Consistently, induction of apoptosis (FIG. 17B) and activation of caspase-8 (FIG. 6G) and Bax (FIG. 6H) by Sulindac/TNFα combination was inhibited by CA-AKT.

For the compound `CC1=C(CC(=O)O)c2cc(F)ccc2/C1=C\c1ccc(C(C)C)cc1` [K-80003, (Z)-2-(3-(4-Iso-propylbenzylidene)-6-fluoro-2-methyl-3H-inden-1-yl)acetic acid], the “PARP cleavage and caspase-8 activation, combination with TNFα” value in the experiment with HepG2 liver cancer cells is “synergistically induced PARP cleavage and caspase-8 activation”. Also, the “induction of PARP cleavage together with TNFα, compared with Sulindac” value with ZR-75-1 cells is reported as “more effective than Sulindac”. Moreover, the “inhibition of colony formation” value in experiment [1] is “much more effective than Sulindac; also recorded: almost completely suppressed”. Also, the “RXRα-binding activity, fold higher than Sulindac” value in experiment [2] (competition ligand-binding assay) is listed as “about 34 fold”. Further, the “inhibition of TNFα-induced AKT activation, compared with Sulindac” value with AKT (50 μM each) was “much more effective than Sulindac”.
For `CSc1ccc(/C=C2/C(C)=C(CC(=O)O)c3cc(F)ccc32)cc1` [Sulindac, (Z)-2-(3-(4-(Methylthio)benzylidene)-6-fluoro-2-methyl-3H-inden-1-yl)acetic acid], in the experiment with HepG2 cells (Bax/6A7 antibody), the “cells showing Bax staining, Sulindac/TNFα” value is listed as “about 60%”. For the same compound, in the experiment with HepG2 cells (TNFα and Sulindac), the “cells exhibiting Bax staining, CA-AKT-transfected” value was “about 13%” and the “cells exhibiting Bax staining, nontransfected” value is on record as “About 60%”. In addition, the “PARP cleavage and caspase-8 activation, combination with TNFα” value with HepG2 liver cancer cells is “effectively induced PARP cleavage and caspase-8 activation”. For the same compound, the “inhibition of colony formation” value in experiment [1] was “strongly inhibited”. The compound further displayed an IC50 in experiment [2] (competition with [3H]9-cis-RA on RXRα LBD protein) of 80 µM. The “inhibition of TNFα-induced AKT activation” value with AKT (A549 lung cancer cells, 100 μM, TNFα 10 ng/ml) is listed as “potently inhibited”. Besides, the “inhibition of AKT activation, Sulindac alone” value in the experiment with AKT (ZR-75-1 and PC3 cells (high basal AKT activation)) is on record as “little inhibitory effect”. The “inhibition of AKT activation, combination with TNFα” value in the experiment on AKT (ZR-75-1 and PC3 cells, 100 μM, TNFα 10 ng/ml) is reported as “almost completely”.
